Data taken from the NIST ThermoML archive (doi:10.1016/j.fluid.2007.06.017).
± gives the expanded uncertainty stated by the source.

Conditions: Crystal; DTA

CCCCCCCCCCCCCC[P+](CCCCCC)(CCCCCC)CCCCCC.O=S(=O)([N-]S(=O)(=O)C(F)(F)F)C(F)(F)F
Normal melting temperature: 33.00 ± 1 °C
